Source: US7812143B2, “Biomarkers for cancer treatment” (Memorial Sloan-Kettering Cancer Center, priority 2006, dated 2010)

Columns and labels:
[1] = system: V600E B-RAF xenograft models of melanoma and colon carcinoma; assay: Tumor growth in V600E B-RAF xenograft models; details: for tumor growth: compared to vehicle-treated mice, several V600E B-RAF xenograft models of melanoma and colon carcinoma; for cyclin D and Ki-67 in tumor samples: western blot and immunohistochemistry of xenograft tumor samples
[2] = system: HER2/EGFR (WT BRAF) tumors; assay: Response of HER2/EGFR (WT BRAF) tumors to MEK inhibition, in vitro assays and xenograft models; assay type: cell-based; details: for effectiveness at expected target, phosphorylated MAPK: WT BRAF group compared with V600E BRAF tumors; for sensitivity of tumors with high MAPK activity under the control of activated receptors: in vitro assays and xenograft models
Source text: Eleven cells lines, including five BRAF mutants, are characterized by their tissue of lineage and mechanism of MAPK activation, were used for the experiments described herein, and are listed in Table 2. All the cell lines have high levels of MAPK activity.

[3] = system: V600E BRAF tumor cell lines; assay: Treatment of B-RAF mutant tumor cell lines and xenograft models with MEK inhibitors (cyclin D, RB, cell cycle, proliferation); assay type: cell-based; details: tumor cell lines and xenograft models with activating B-RAF mutation (V600E BRAF)
Source text: Eleven cells lines, including five BRAF mutants, are characterized by their tissue of lineage and mechanism of MAPK activation, were used for the experiments described herein, and are listed in Table 2.

[4] = system: SkMel 5, SkMel 19, and Colo205; assay: Western blot of relative protein expression after MEK inhibitor; assay type: cell-based; details: 50 nM, as a function of time; three V600E BRAF cell lines
Procedure: Following protein isolation using NP40 1% lysis buffer, Western blot analysis was used to determine relative protein expression in cells as a function of time following exposure to MEK inhibitor (PD0325901 50 nM). […] For the Western Blot analysis, DUSP6 antibody (SantaCruz (#8598)), and SPRY2 antibody (Upstate Cell Signaling Solutions).

[5] = system: panel of V600E BRAF cell lines; assay: Microarray (SAM) of gene expression, MEK-inhibited versus DMSO control; assay type: cell-based; details: 50 nM, 8 hours, false discovery rate 9%
Procedure: Mean expression of genes was determined for a panel of V600E BRAF cell lines in each of two conditions, MEK-inhibited (PD0325901 50 nM) or DMSO control, both at 8 hours. The panel of V600E BRAF cell lines included 5 melanoma cell lines (SkMel 1, SkMel 5, SkMel 19, SkMel 28, and MALME 3M) and two colorectal carcinoma cell lines (Colo205 and HT29).
Significance analysis of microarray (SAM) methods were used to determine the significance of difference between the two groups of genes (using a false discovery rate of 9%). […] Expression of the genes was also presented as a heatmap representation (FIG. 3B).

SkMel 5 cells = assay: Quantitative RT-PCR of relative mRNA levels after MEK inhibitor; assay type: cell-based; details: 50 nM; 2, 4, 8 and 24 hrs versus time 0; SkMel 5 (V600E BRAF)
Procedure: Quantitative RT-PCR was used to determine relative levels of mRNA in cells as a function of time following exposure to the MEK inhibitor (PD0325901 50 nM). SkMel 5 cells were treated with MEK inhibitor (PD0325901 50 nM) for the times indicated (2 hrs, 4 hrs, 8 hrs, and 24 hrs). Following total RNA extraction and an in vitro reverse transcription step, synthesized cDNA was used in a PCR reaction containing pre-designed probe-primer sets purchased from Applied Biosystems and run on an ABI 7500 RT-PCR machine, using software supplied by Applied Biosystems. Relative levels of mRNA compared to the reference sample (time 0) were determined using the ΔΔCT calculation, using HPRT as a housekeeping gene for normalization. In brief, each gene for each sample is assigned a value based on the number of PCR amplification cycles required for the amplified gene product to cross a detection threshold (i.e., a gene detectable at 25 amplification cycles is present in greater starting quantity than a gene product detectable at 30 cycles). The cycle value for each sample for the gene of interest is subtracted from the cycle value for a reference sample (untreated, or time 0), and this value is the delta CT for the gene of interest. […] This is the delta CT for the housekeeping gene. The delta CT (housekeeping gene) is subtracted from the delta CT (gene of interest), and this is the delta delta CT. […]

SkMel 28 cells = assay: Affymetrix U133A 2.0 gene expression time course after MEK inhibitor; assay type: cell-based; details: 50 nM
Procedure: SkMel 28 cells (a melanoma cell line with the V600E BRAF mutation) were treated with the MEK inhibitor, PD0325901 (50 nM), for 2, 8, or 24 hours, or no treatment at all (=time 0 hours). Total cellular RNA was analyzed using an Affymetrix U133A 2.0 platform. Pairwise comparisons of gene expression at each individual time point to reference sample (time 0 hours) were performed, and genes were selected using a threshold of two-fold or greater change in either direction. […] Thus, genes which changed greater than or equal to two-fold in either direction in response to PD0325901 compared to control were identified at three time points following MEK inhibition. All genes were assigned to a functional class based on biological process, according to Gene Ontology (GO) classification (FIG. 2). The number of genes changing in each functional classification was assigned a p-value based on the significance of the number of genes changing given the total number of genes changed at that time point, compared to the total number of genes in the GO functional class, and the total number of genes on the chip. An enrichment score was assigned to each functional class, and was defined as the −log 10(p-value).

Row | SMILES | tumor growth [1] | cyclin D and Ki-67 in tumor samples [1] | effectiveness at expected target, phosphorylated MAPK [2] | sensitivity of tumors with high MAPK activity under the control of activated receptors [2] | cell cycle [3] | cyclin D levels [3] | phosphorylation of RB [3] | proliferation [3] | relative protein expression of DUSP6 and SPRY2 [4] | genes downregulated [5] | genes upregulated [5] | genes which change significantly in either direction ([5]; 45 probe sets) | relative mRNA levels of DUSP6, SPRY2, ETV1, ETV5, and CCND1 (SkMel 5 cells) | number of genes changing two-fold or greater in either direction (SkMel 28 cells; 2 hours versus time 0) | number of genes changing two-fold or greater in either direction (SkMel 28 cells; 8 hours versus time 0) | number of genes changing two-fold or greater in either direction (SkMel 28 cells; 24 hours versus time 0)
1 | O=C(NOCC1CC1)c1ccc(F)c(F)c1Nc1ccc(I)cc1Cl [CI-1040] | Tumor growth delay was achieved | decline in both cyclin D and Ki-67 | not measurably different | resistant | G1 arrest | decline in cyclin D levels | hypophosphorylation of RB | inhibition of proliferation | – | – | – | – | – | – | – | –
2 | O=C(NOC[C@H](O)CO)c1ccc(F)c(F)c1Nc1ccc(I)cc1F [PD0325901] | Tumor growth delay was achieved | decline in both cyclin D and Ki-67 | not measurably different | resistant | G1 arrest | decline in cyclin D levels | hypophosphorylation of RB | inhibition of proliferation | decrease in protein expression | 31 genes | 4 genes | 35 genes | Decrease in mRNA levels | 91 genes | 327 genes | 1191 genes
